Laboratory results from patent publication US6737383B1, “Herbicidal oxadiazolidines” (priority 1999, dated 2004).

Experiments:
wild oat = assay: Test B pre/postemergence wild oat; type: in vivo, Avena fatua
Outline: (§1)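 Test chemicals in a non-phytotoxic solvent mixture with surfactant were sprayed preemergence onto planted seeds and postemergence onto plants 2 to 18 cm tall (1- to 4-leaf stage). After twelve to sixteen days in a greenhouse, injury was visually rated against untreated controls from 0 (no effect) to 10 (complete control).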

bedstraw = assay: Test B pre/postemergence bedstraw; type: in vivo, Galium aparine; settings: for Bedstraw plant response rating: Postemergence
Outline: as §1

velvetleaf = assay: Test B pre/postemergence velvetleaf; type: in vivo, Abutilon theophrasti
Outline: as §1

rice = assay: Test B flood test rice; type: in vivo, Oryza sativa
Outline: (§2)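 Flood test on plants grown to the 2-leaf stage; treated plants kept in greenhouse twelve to sixteen days, then visually rated against controls on a 0 (no effect) to 10 (complete control) scale.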

crabgrass = assay: Test B pre/postemergence crabgrass; type: in vivo, Digitaria sanguinalis
Outline: as §1

corn = assay: Test B pre/postemergence corn; type: in vivo, Zea mays
Outline: as §1

sugar beet = assay: Test B pre/postemergence sugar beet; type: in vivo, Beta vulgaris
Outline: as §1

duck salad = assay: Test B flood test duck salad; type: in vivo, Heteranthera limosa
Outline: as §2

surinam grass = assay: Test B pre/postemergence surinam grass; type: in vivo, Brachiaria decumbens
Outline: as §1

wheat = assay: Test B pre/postemergence wheat; type: in vivo, Triticum aestivum
Outline: as §1

soybean = assay: Test B pre/postemergence soybean; type: in vivo, Glycine max
Outline: as §1

purple nutsedge = assay: Test B pre/postemergence purple nutsedge; type: in vivo, Cyperus rotundus
Outline: as §1

smallflower flatsedge = assay: Test B flood test smallflower flatsedge; type: in vivo, Cyperus difformis
Outline: as §2

cocklebur = assay: Test B pre/postemergence cocklebur; type: in vivo, Xanthium strumarium
Outline: as §1

bamyardgrass = assay: Test B flood test barnyardgrass; type: in vivo, Echinochloa crus-galli
Outline: as §2

blackgrass = assay: Test B pre/postemergence blackgrass; type: in vivo, Alopecurus myosuroides
Outline: as §1

[1] = Preemergence, Rate 62 g/ha, scale of 0 to 10 where 0 is no effect and 10 is complete control
[2] = Preemergence, Rate 250 g/ha, scale of 0 to 10 where 0 is no effect and 10 is complete control
[3] = Preemergence, Rate 500 g/ha, scale of 0 to 10 where 0 is no effect and 10 is complete control
[4] = Rate 62 g/ha, Postemergence, scale 0 to 10 (0 no effect, 10 complete control)
[5] = Rate 125 g/ha, Postemergence, scale of 0 to 10 where 0 is no effect and 10 is complete control
[6] = Rate 250 g/ha, Postemergence, scale of 0 to 10 where 0 is no effect and 10 is complete control
[7] = Rate 62 g/ha, headed Pre-emergence (flood test species), scale 0 to 10 (0 no effect, 10 complete control)
[8] = Rate 125 g/ha, Pre-emergence, flood test species, scale 0 to 10 where 0 is no effect and 10 is complete control
[9] = Rate 250 g/ha, Pre-emergence, flood-test species, scale 0 to 10, 0 is no effect, 10 is complete control
[10] = Rate 500 g/ha, Pre-emergence, flood test species, scale 0 to 10 (0 no effect, 10 complete control)
[11] = Rate 500 g/ha, Postemergence, scale 0 to 10, 0 no effect, 10 complete control

CCN(C(=O)n1oc(=O)n(C2CC2)c1=O)C1CCCCC1 [Compound 298] was tested. Which “Wild oats plant response rating” value (wild oat; [1]) did it give?
The value was 0.

What about the “Wild oats plant response rating (0 to 10 scale)” value (wild oat; Preemergence, Rate 125 g/ha) of the same compound?
Its value is 0.

And the “Wild oats plant response rating” value (wild oat; [2])?
The value was 0.

And the “Plant response rating, Wild oats” value (wild oat; [3])?
The value was 0.

And the “Wild oats plant response rating” value (wild oat; [4])?
The value was 0.

What about the “Wild oats plant response rating” value (wild oat; [5]) of the same compound?
Its value is 0.

What about the “Plant response rating, Wild oats” value (wild oat; [6]) of the same compound?
Its value is 0.

And the “Bedstraw plant response rating (0 to 10 scale)” value (bedstraw; Preemergence, Rate 125 g/ha)?
Its value is 0.

What about the “Bedstraw plant response rating” value (bedstraw; Rate 62 g/ha, scale 0 to 10 (0 no effect, 10 complete control)) of the same compound?
Its value is 0.

And the “Bedstraw plant response rating” value (bedstraw; Rate 125 g/ha, scale of 0 to 10 where 0 is no effect and 10 is complete control)?
Its value is 0.

What about the “Velvetleaf plant response rating” value (velvetleaf; [1]) of the same compound?
Its value is 0.

What about the “Velvetleaf plant response rating (0 to 10 scale)” value (velvetleaf; Preemergence, Rate 125 g/ha) of the same compound?
The value was 0.

And the “Velvetleaf plant response rating” value (velvetleaf; [2])?
The value was 0.

And the “Plant response rating, Velvetleaf” value (velvetleaf; [3])?
Its value is 0.

What about the “Velvetleaf plant response rating” value (velvetleaf; [4]) of the same compound?
The value was 0.

What about the “Velvetleaf plant response rating” value (velvetleaf; [5]) of the same compound?
Its value is 0.

What about the “Plant response rating, Velvetleaf” value (velvetleaf; [6]) of the same compound?
Its value is 0.

What about the “Rice plant response rating” value (rice; [7]) of the same compound?
The value was 0.

And the “Rice plant response rating” value (rice; [8])?
The value was 0.

And the “Rice plant response rating” value (rice; [9])?
The value was 0.

What about the “Rice plant response rating” value (rice; [10]) of the same compound?
The value was 0.

And the “Crabgrass plant response rating” value (crabgrass; [1])?
Its value is 0.

What about the “Crabgrass plant response rating (0 to 10 scale)” value (crabgrass; Preemergence, Rate 125 g/ha) of the same compound?
Its value is 0.

And the “Crabgrass plant response rating” value (crabgrass; [2])?
The value was 0.

What about the “Plant response rating, Crabgrass” value (crabgrass; [3]) of the same compound?
Its value is 0.

And the “Crabgrass plant response rating” value (crabgrass; [4])?
The value was 0.

And the “Crabgrass plant response rating” value (crabgrass; [5])?
The value was 0.

And the “Plant response rating, Crabgrass” value (crabgrass; [6])?
The value was 0.

And the “Corn plant response rating” value (corn; [1])?
Its value is 0.

What about the “Corn plant response rating (0 to 10 scale)” value (corn; Preemergence, Rate 125 g/ha) of the same compound?
The value was 0.

What about the “Corn plant response rating” value (corn; [2]) of the same compound?
Its value is 0.

What about the “Plant response rating, Corn” value (corn; [3]) of the same compound?
Its value is 0.

What about the “Corn plant response rating” value (corn; [4]) of the same compound?
Its value is 0.

What about the “Corn plant response rating” value (corn; [5]) of the same compound?
Its value is 0.

And the “Plant response rating, Corn” value (corn; [6])?
The value was 0.

What about the “Corn plant response rating” value (corn; [11]) of the same compound?
The value was 0.

What about the “Sugarbeets plant response rating” value (sugar beet; [1]) of the same compound?
The value was 0.

What about the “Sugarbeets plant response rating (0 to 10 scale)” value (sugar beet; Preemergence, Rate 125 g/ha) of the same compound?
Its value is 0.

And the “Sugarbeets plant response rating” value (sugar beet; [2])?
The value was 0.

What about the “Plant response rating, Sugarbeets” value (sugar beet; [3]) of the same compound?
The value was 0.

And the “Sugarbeets plant response rating” value (sugar beet; [4])?
The value was 0.

And the “Sugarbeets plant response rating” value (sugar beet; [5])?
Its value is 0.

What about the “Plant response rating, Sugarbeets” value (sugar beet; [6]) of the same compound?
Its value is 0.

And the “Ducksalad plant response rating” value (duck salad; [7])?
The value was 0.

What about the “Ducksalad plant response rating” value (duck salad; [8]) of the same compound?
The value was 0.

What about the “Ducksalad plant response rating” value (duck salad; [9]) of the same compound?
The value was 0.

And the “Ducksalad plant response rating” value (duck salad; [10])?
Its value is 0.

And the “B. signalgrass plant response rating” value (surinam grass; [1])?
Its value is 0.

And the “B. signalgrass plant response rating (0 to 10 scale, 0 is no effect, 10 is complete control)” value (surinam grass; Preemergence, Rate 125 g/ha)?
The value was 0.

What about the “B. signalgrass plant response rating” value (surinam grass; [2]) of the same compound?
The value was 0.

What about the “Plant response rating, B. signalgrass” value (surinam grass; [3]) of the same compound?
Its value is 0.

What about the “B. signalgrass plant response rating” value (surinam grass; [4]) of the same compound?
The value was 0.

And the “B. signalgrass plant response rating” value (surinam grass; [5])?
Its value is 0.

What about the “Plant response rating, B. signalgrass” value (surinam grass; [6]) of the same compound?
Its value is 0.

And the “B. signalgrass plant response rating” value (surinam grass; [11])?
The value was 0.

What about the “Wheat plant response rating” value (wheat; [1]) of the same compound?
Its value is 0.

And the “Wheat plant response rating (0 to 10 scale)” value (wheat; Preemergence, Rate 125 g/ha)?
The value was 0.

And the “Wheat plant response rating” value (wheat; [2])?
The value was 0.

What about the “Plant response rating, Wheat” value (wheat; [3]) of the same compound?
The value was 0.

What about the “Wheat plant response rating” value (wheat; [4]) of the same compound?
The value was 0.

What about the “Wheat plant response rating” value (wheat; [5]) of the same compound?
The value was 0.

And the “Plant response rating, Wheat” value (wheat; [6])?
Its value is 0.

What about the “Soybean plant response rating” value (soybean; [1]) of the same compound?
Its value is 0.

And the “Soybean plant response rating (0 to 10 scale)” value (soybean; Preemergence, Rate 125 g/ha)?
Its value is 0.

What about the “Soybean plant response rating” value (soybean; [2]) of the same compound?
The value was 0.

And the “Plant response rating, Soybean” value (soybean; [3])?
The value was 0.

What about the “Soybean plant response rating” value (soybean; [4]) of the same compound?
Its value is 0.

What about the “Soybean plant response rating” value (soybean; [5]) of the same compound?
Its value is 3.

What about the “Plant response rating, Soybean” value (soybean; [6]) of the same compound?
Its value is 3.

And the “Nutsedge plant response rating” value (purple nutsedge; [1])?
Its value is 0.

What about the “Nutsedge plant response rating (0 to 10 scale)” value (purple nutsedge; Preemergence, Rate 125 g/ha) of the same compound?
The value was 0.

What about the “Nutsedge plant response rating” value (purple nutsedge; [2]) of the same compound?
Its value is 0.

And the “Plant response rating, Nutsedge” value (purple nutsedge; [3])?
Its value is 0.

And the “Nutsedge plant response rating” value (purple nutsedge; [4])?
Its value is 0.

And the “Nutsedge plant response rating” value (purple nutsedge; [5])?
Its value is 0.

What about the “Plant response rating, Nutsedge” value (purple nutsedge; [6]) of the same compound?
Its value is 0.

And the “S. Flatsedge plant response rating” value (smallflower flatsedge; [7])?
Its value is 0.

And the “S. Flatsedge plant response rating” value (smallflower flatsedge; [8])?
Its value is 0.

What about the “S. Flatsedge plant response rating” value (smallflower flatsedge; [9]) of the same compound?
The value was 0.

What about the “S. Flatsedge plant response rating” value (smallflower flatsedge; [10]) of the same compound?
Its value is 0.

What about the “Cocklebur plant response rating” value (cocklebur; [1]) of the same compound?
The value was 0.

What about the “Cocklebur plant response rating (0 to 10 scale)” value (cocklebur; Preemergence, Rate 125 g/ha) of the same compound?
The value was 0.

And the “Cocklebur plant response rating” value (cocklebur; [2])?
The value was 0.

What about the “Plant response rating, Cocklebur” value (cocklebur; [3]) of the same compound?
The value was 0.

And the “Cocklebur plant response rating” value (cocklebur; [4])?
The value was 0.

And the “Cocklebur plant response rating” value (cocklebur; [5])?
The value was 0.

And the “Plant response rating, Cocklebur” value (cocklebur; [6])?
Its value is 0.

And the “Cocklebur plant response rating” value (cocklebur; [11])?
Its value is 0.

What about the “Barnyardgrass plant response rating” value (bamyardgrass; [7]) of the same compound?
The value was 0.

And the “Barnyardgrass plant response rating” value (bamyardgrass; [8])?
Its value is 0.

And the “Barnyardgrass plant response rating” value (bamyardgrass; [9])?
The value was 0.

And the “Barnyardgrass plant response rating” value (bamyardgrass; [10])?
The value was 0.

And the “Blackgrass plant response rating” value (blackgrass; [1])?
Its value is 0.

What about the “Blackgrass plant response rating” value (blackgrass; [2]) of the same compound?
Its value is 0.

And the “Plant response rating, Blackgrass” value (blackgrass; [3])?
Its value is 0.

And the “Blackgrass plant response rating” value (blackgrass; [4])?
Its value is 0.

What about the “Blackgrass plant response rating” value (blackgrass; [5]) of the same compound?
Its value is 0.

What about the “Plant response rating, Blackgrass” value (blackgrass; [6]) of the same compound?
The value was 0.

What about the “Blackgrass plant response rating” value (blackgrass; [11]) of the same compound?
The value was 0.
